{"source": "patent US12600740B2", "about": "“Fluorinated N-acetyl glucosamine analogs and xylose derivatives” (UTI Limited Partnership, priority 2018, dated 2026)", "key": {"mouse astrocytes": {"test_system": "mouse astrocytes", "assay": "Propidium iodide/calcein AM toxicity on astrocytes", "format": "cell-based", "settings": "100 μM, 48 hours", "experimental": "Toxicity on astrocytes was assayed with propidium iodide/calcein AM […]. Live cells convert calcein AM into a green fluorescent product, whereas dying/dead cells are stained with propidium iodide.\n96-well plates were imaged with ImageXpress® Micro Cellular Imaging and Analysis System (Molecular Devices, Sunnyvale, CA). Twelve images per well were collected at ×10 magnification. Images were processed with MetaXpress analysis software. OPC outgrowth was calculated by the MetaExpress® “neurite outgrowth” software module which uses fluorescence and user-modified parameters to document the overall extent of processes emanating from the cell soma, regardless of size of the protrusions or the number of branches. This was previously detailed elsewhere [Cua, R. C.; Lau, L. W.; Keough, M. B.; Midha, R.; Apte, S. S.; and Yong, V. W. Overcoming neurite-inhibitory chondroitin sulfate proteoglycans in the astrocyte matrix. Glia 2013, 61 (6), 972-84]. Live-dead cell assay was calculated with MetaXpress analysis software with the “multiwavelength cell scoring”, which uses fluorescent intensity to measure co-localization of calcein AM, propidium iodide, and […]. Data from the 12 images were averaged to a single data point per well, wherein the OPC outgrowth data calculated from the MetaExpress® “neurite outgrowth” readout was divided by data from the same 12 fields of cell number that was acquired through the multiwavelength cell scoring. This provided mean outgrowth per cell per well, with four well replicates per treatment. Experiments were repeated at least twice.\nA mixture was created containing propidium iodide (10 μg/ml) to stain dead cells, 10 μM Calcein AM (ThermoFisher, #C3100MP) to identify live cells, and 2 drops per ml of media of NucBlue™ Live ReadyProbes™ Reagent (ThermoFisher, #R37605) to identify nuclei. The mixture was added to plate media and incubated for 20-30 minutes at 37° C. and 5% CO2 before imaging. Excitation/emission of calcein-AM (λex 490 nm, λem 515 nm), propidium iodide (λex 535 nm, λem 617 nm), and nuclear blue (λex 350 nm, λem 461 nm) was performed using ImageXpress® Micro Cellular Imaging and Analysis System (Molecular Devices, Sunnyvale, CA) and analyzed by MetaExpress multiwavelength cell scoring program."}, "[1]": {"test_system": "CSPG production by astrocytes", "assay": "Western blot of astrocyte conditioned medium, MAB2030 (chondroitin sulfate GAG stubs)", "format": "cell-based, mouse", "settings": "for Reduce CSPG production: astrocytes, significance class", "summary_of_the_method": "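Astrocytes (1×10^6 cells/well) were treated with 50 μM compound in AIM-V for 48 h, and pooled conditioned medium was concentrated for Western blot. Samples for MAB2030 were digested overnight at 37° C with 0.2 U/ml chondroitinase ABC; 2H6 blots were undigested. ECL band density was normalized to untreated astrocytes on the same gel.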"}, "[2]": {"test_system": "intact 4-sulfated chondroitin sulfate sidechains (2H6)", "assay": "Western blot of astrocyte conditioned medium, 2H6 (intact chondroitin-4-sulfate)", "format": "cell-based, mouse", "settings": "astrocyte conditioned media", "text": "Astrocytes are major producers of CSPGs following injury in the CNS [Jones, L. L., Margolis, R. U. & Tuszynski, M. H. The chondroitin sulfate proteoglycans neurocan, brevican, phosphacan, and versican are differentially regulated following spinal cord injury. Experimental Neurology 182, 399-411 (2003); Tang, X., Davies, J. E. & Davies, S. J. Changes in distribution, cell associations, and protein expression levels of NG2, neurocan, phosphacan, brevican, versican V2, and tenascin-C during acute to chronic maturation of spinal cord scar tissue. […] The Journal of neuroscience: the official journal of the Society for Neuroscience 20, 2427-2438 (2000); McKeon, R. J., Jurynec, M. J. & Buck, C. R. The chondroitin sulfate proteoglycans neurocan and phosphacan are expressed by reactive astrocytes in the chronic CNS glial scar. The Journal of neuroscience: the official journal of the Society for Neuroscience 19, 10778-10788 (1999); Haas, C. A., Rauch, U., Thon, N., Merten, T. & Deller, T. Entorhinal cortex lesion in adult rats induces the expression of the neuronal chondroitin sulfate proteoglycan neurocan in reactive astrocytes. The Journal of neuroscience: the official journal of the Society for Neuroscience 19, 9953-9963 (1999)] and they may help drive progression of disability in a model of progressive MS [Mayo, L. et al. Regulation of astrocyte activation by glycolipids drives chronic CNS inflammation. Nature medicine 20, 1147-1156 (2014)]. Therefore astrocytes were used as model cells to determine the ability of the sugar analogs to reduce synthesis of CSPGs. Since CSPGs are exported out of cells, the conditioned media from analog-treated astrocytes were probed by Western blots (FIG. 4). We used antibodies to both the stubs of chondroitin sulfate GAGs attached to the core protein (MAB2030) and to intact 4-sulfated chondroitin sulfate sidechains (2H6) (FIG. 4a). Particularly, we used the 2H6 antibody to label intact 4-sulfated chondroitin sulfate sidechains, and the MAB2030 antibody to detect the stubs of chondroitin sulfate GAGs attached to the core protein. […] 1998, 160 (8), 3812-3819. Poole Poole C. A.; Glant T. T.; Schofield J. R.; Chondrons from articular cartilage. (IV). Immunolocalization of proteoglycan epitopes in isolated canine tibial chondrons. J. Histochem. Cytochem. 1991, 39 (9), 1175-1187].\nAstrocytes were plated in uncoated 6-well plates (3 replicate wells per treatment) at 1×10^6 cells/well in mixed glial media, and incubated at 5% CO2 and 37° C. Astrocytes were treated with compounds at 50 μM in AIM-V media for 48 hours. Media was pooled from 3 replicate wells in 15 ml 100K cutoff centricon tubes (EMD Millipore, #UFC905008), which were spun on an ultracentrifuge at 5000× g for 2 cycles of 10 minutes each. […] Total protein was quantified using a Bradford assay. […]"}, "[3]": {"settings": "astrocyte conditioned media, 50 μM, 48 hours"}}, "note": "Entries after “also recorded” stand apart in the source; their conditions may differ. Where two headings read alike, the source gives them in different places."}
{"smiles": "CC(=O)NC1C(OC(C)=O)OC(COC(C)=O)[C@H](F)[C@@H]1OC(C)=O", "note": "(mixture of isomers) [Compound 13, 2-Acetamido-1,3,6-tri-O-acetyl-2,4-dideoxy-4-fluoro-α/β-D-galactopyranose]", "values": [{"measurement": "toxicity on astrocytes (propidium iodide/calcein AM)", "setting": "mouse astrocytes", "value": "did not produce toxicity"}, {"measurement": "effect on CSPG production by astrocytes", "setting": "[1]; [3]", "value": "significantly reduced chondroitin sulfate GAGs; also recorded: most effectively reduced CSPG production"}]}
{"smiles": "CCC(=O)OC1OC(COC(C)=O)[C@@H](F)[C@H](OC(C)=O)C1NC(C)=O", "note": "(stereo partly drawn) [Compound 7, 2-Acetamido-3,6-di-O-acetyl-2,4-dideoxy-4-fluoro-1-O-propanoyl-α/β-D-glucopyranose]", "values": [{"measurement": "toxicity on astrocytes (propidium iodide/calcein AM)", "setting": "mouse astrocytes", "value": "did not produce toxicity"}, {"measurement": "effect on CSPG production by astrocytes", "setting": "[1]; [3]", "value": "most effectively reduced CSPG production"}, {"measurement": "total chondroitin sulfate side chains (2H6)", "setting": "[2]", "value": "showed evidence of reducing total chondroitin sulfate side chains"}]}
{"smiles": "CC(=O)NC1C(OC(C)=O)OC(COC(C)=O)C(F)(F)[C@@H]1OC(C)=O", "note": "(mixture of isomers) [Compound 16, 2-Acetamido-1,3,6-tri-O-acetyl-2,4-dideoxy-4,4-difluoro-α/β-D-xylo-hexopyranose]", "values": [{"measurement": "toxicity on astrocytes (propidium iodide/calcein AM)", "setting": "mouse astrocytes", "value": "did not produce toxicity"}, {"measurement": "effect on CSPG production by astrocytes", "setting": "[1]; [3]", "value": "reduced CSPG production in astrocytes more effectively than Ac-4-F-GlcNAc 3; also recorded: most effectively reduced CSPG production"}, {"measurement": "total chondroitin sulfate side chains (2H6)", "setting": "[2]", "value": "showed evidence of reducing total chondroitin sulfate side chains"}]}
{"smiles": "CC(=O)NC1C(OC(C)=O)OC(COC(C)=O)[C@@H](F)C1OC(C)=O", "note": "(some centres unmarked) [Compound 3, reference compound]", "values": [{"measurement": "toxicity on astrocytes (propidium iodide/calcein AM)", "setting": "mouse astrocytes", "value": "did not produce toxicity"}, {"measurement": "effect on CSPG production by astrocytes", "setting": "[1]; [3]", "value": "most effectively reduced CSPG production"}, {"measurement": "Reduce CSPG production", "setting": "[1]", "value": "*** (***p < 0.001)"}, {"measurement": "total chondroitin sulfate side chains (2H6)", "setting": "[2]", "value": "showed evidence of reducing total chondroitin sulfate side chains"}]}
{"smiles": "CCCC(=O)OC1OC(COC(C)=O)[C@@H](F)[C@H](OC(C)=O)C1NC(C)=O", "note": "(mixture of isomers) [Compound 8, 2-Acetamido-3,6-di-O-acetyl-1-O-butanoyl-2,4-dideoxy-4-fluoro-α/β-D-glucopyranose]", "values": [{"measurement": "toxicity on astrocytes (propidium iodide/calcein AM)", "setting": "mouse astrocytes", "value": "did not produce toxicity"}]}
{"smiles": "CCCC(=O)OC[C@H]1OC(O)[C@H](NC(C)=O)[C@@H](OC(=O)CCC)[C@@H]1F", "note": "(stereo partly drawn) [Compound 12, 2-Acetamido-3,6-di-O-butanoyl-2,4-dideoxy-4-fluoro-α/β-3-D-glucopyranose]", "values": [{"measurement": "effect on CSPG production by astrocytes", "setting": "[1]; [3]", "value": "did not affect CSPG synthesis; also recorded: did not lower CSPG production in astrocytes"}, {"measurement": "Reduce CSPG production", "setting": "[1]", "value": "n.s."}]}
{"smiles": "CC(=O)N[C@H]1[C@H](OC(C)=O)O[C@H](COC(C)=O)[C@@H](OC(C)=O)[C@@H]1OC(C)=O", "note": "[Compound 1, reference compound]", "values": [{"measurement": "effect on CSPG production by astrocytes", "setting": "[1]; [3]", "value": "did not affect CSPG production; also recorded: did not lower CSPG production in astrocytes"}, {"measurement": "Reduce CSPG production", "setting": "[1]", "value": "n.s."}]}
{"smiles": "CC(=O)NC1C(O)OC(COC(C)=O)[C@@H](F)[C@@H]1OC(C)=O", "note": "(mixture of isomers) [Compound 10]", "values": [{"measurement": "toxicity on astrocytes (propidium iodide/calcein AM)", "setting": "mouse astrocytes", "value": "did not produce toxicity"}, {"measurement": "effect on CSPG production by astrocytes", "setting": "[1]", "value": "most effectively reduced CSPG production"}, {"measurement": "total chondroitin sulfate side chains (2H6)", "setting": "[2]", "value": "showed evidence of reducing total chondroitin sulfate side chains"}]}
